Reference: patent US20240174684A1, “INHIBITORS OF cGAS ACTIVITY AS THERAPEUTIC AGENTS” (BELLBROOK LABS, LLC, priority 2021, published 2024)
In brackets after ≈: the same amount, converted by molar mass. Read-outs that look alike come from different tables or passages of the source.

How the values were obtained:
[1] = test system: MDR1 (P-glycoprotein); assay: MDCK-MDR1 permeability A→B; assay type: in vitro ADME, Canine; details: dog; MDCK cells expressing human MDR1, A→B; read-out: MDCK-MDR Permeability A→B
Summary of the method: (§1)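 Permeability measured apical-to-basolateral in MDCK cells expressing human MDR1, reported as binned ranges in cm/s×10^−6. Metabolic stability determined as half-life in mouse and human hepatocytes, reported as binned ranges in minutes.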

[2] = Metabolic stability in mouse hepatocytes; assay type: in vitro ADME; details: read-out: Mouse MS Stability t1/2
Method: (§2) ADME studies: Compound A and the compounds of the disclosure were tested for aqueous solubility (KSOL), metabolic stability (human and mouse […]) and permeability (Caco-2 and/or MDR1-MDCK cells) to provide an initial indication of oral bioavailability.
(§3) The favorable physicochemical properties are reflected in promising results in in vitro ADME tests. […] Metabolic stability, which was routinely measured with mouse and human hepatocytes, is outstanding, with t, greater than 2 hours for all of the compounds of the disclosure in which it has been measured. Cell permeability was measured using MDCK cells expressing human MDR1 (P-glycoprotein) to assess passive permeability as well as active transport out of the cell. […] Numerous compounds in Table 1 meet these permeability criteria, which is consistent with their design for TPSA <140 Å^2 and increased lipophilicity.
(§4) The MDCK-MDR1 permeability A ->B is shown in Table 2 below, where A represents 5-10 cm/s×10^−6; B represents 1-5 cm/s×10^−6; and C represents <1 cm/ss×10^−6. The metabolic stability half time, in both mouse and human hepatocytes, is also shown in Table 2 below, where A′ represents 100-200 minutes; B′ represents 200-300 minutes; and C′ represents >300 minutes.

[3] = Metabolic stability in human hepatocytes; assay type: in vitro ADME; details: read-out: Human MS Stability t1/2
Method: as §2, §3, §4

[4] = Kinetic aqueous solubility (KSOL) in PBS, pH 7.4; assay type: physicochemical; details: aqueous buffer, kinetic from dmso stock
Method: as §2, §3

[5] = target: cGAS (Homo sapiens, UniProt Q8N884); assay: Transcreener cGAS enzymatic assay (FP); assay type: biochemical
Summary of the method: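 Human cGAS (30 nm) inhibition, 60 min reactions, FP read-out, standard conditions 100 μM ATP and GTP plus 62.5 nM bp ISD. Also run at 1 mM ATP and GTP (physiological), with 200 μM MnCl2, and with mouse cGAS under standard conditions; IC50 reported.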

[6] = test system: IFNβ production in THP-1 cells; assay: IFNβ ELISA in THP-1 cells; assay type: cell-based, human; details: Homo sapiens; THP-1 cells
Summary of the method: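 THP-1 cells stimulated with dsDNA or cGAMP (STING activation bypassing cGAS) in the presence of compound; IFNβ secreted into medium quantified by ELISA. IC50 values reported in potency bins.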

[7] = test system: MDCK cells expressing human MDR1 (P-glycoprotein); assay: MDCK-MDR1 permeability A→B; assay type: in vitro ADME, Canine
Summary of the method: as §1

[8] = test system: IFN-β production in PBMCs; assay: IFNβ ELISA in human primary PBMCs; assay type: cell-based; details: PBMC
From the text: Cellular assays: The human monocyte cell line THP-1 and human primary PBMCs were used to evaluate the cellular activity of compounds with good biochemical potency. These cells produce a robust cGAS/STING-dependent type I IFN response when stimulated with dsDNA and other pathogen-associated molecular patterns, which was detected using a standard ELISA for IFNβ (R&D Systems). The TBK1 inhibitor, BX-795, which acts downstream of cGAS/STING, was used as a probe.
The ICso values for IFNB ELISA stimulated with THP-1, PBMC, DNA, and cGAMP were determined for several exemplary compounds of the invention, and are provided in Table 3 where A represents <1 μM; B represents 1-2.5 μM; C represents 2.5-10 μM; D represents 10-20 μM; and E represents >20 μM.
The reporter gene assays were used to assess off-target activity with IRF30Luc (RIG-1) or NFKB (TLR4); CellTiter Glo (ATP levels) and Presto Blue (reducing equivalents) were used to assess cytotoxicity; all assays were performed in dose response mode. […] The inventors recently began using human PBMCs to assess cellular potency in a more physiologically relevant context.

[9] = high ATP and GTP (1 mM) to mimic physiological conditions, read-out: IC50 FP Physiological
[10] = standard conditions: 100 μM ATP and GTP, 62.5 nM bp ISD, 60 minute reactions, read-out: IC50 FP Standard

Sequence of cGAS (Q8N884 whole entry): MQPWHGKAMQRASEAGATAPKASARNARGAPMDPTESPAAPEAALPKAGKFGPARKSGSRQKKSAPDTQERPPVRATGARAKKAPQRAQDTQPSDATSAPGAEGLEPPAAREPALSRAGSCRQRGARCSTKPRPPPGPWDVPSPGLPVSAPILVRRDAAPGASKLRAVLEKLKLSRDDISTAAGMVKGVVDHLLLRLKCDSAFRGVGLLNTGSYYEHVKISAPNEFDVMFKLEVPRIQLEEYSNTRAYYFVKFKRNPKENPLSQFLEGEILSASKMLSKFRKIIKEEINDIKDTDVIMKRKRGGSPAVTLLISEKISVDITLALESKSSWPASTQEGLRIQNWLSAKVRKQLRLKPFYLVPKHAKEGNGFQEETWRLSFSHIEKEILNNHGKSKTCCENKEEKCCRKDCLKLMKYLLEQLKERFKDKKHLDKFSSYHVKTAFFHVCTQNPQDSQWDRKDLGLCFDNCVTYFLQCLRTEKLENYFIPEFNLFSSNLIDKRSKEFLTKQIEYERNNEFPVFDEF

Structure (SMILES) | Papp A→B [1] | half-life [2] | half-life [3] | solubility kinetic [4] | IC50 [5, 9] | IC50 [5, 10] | IC50 [6] | MDCK-MDR Permeability A→B [7] | IC50 [8]
Cc1nc(N2C[C@@H](CC(=O)Nc3ccc4[nH]ccc4c3)C[C@H]2C(=O)O)c2oc3ccccc3c2n1 [Compound 1, (2S,4R)-4-(2-((1H-indol-5-yl)amino)-2-oxyethyl)-1-(2-methylbenzofuro[3,2-d]pyrimidin-4-yl)pyrrolidine-2-carboxylic acid] | 10 to 50 nm/s | 1.67 to 3.33 h | > 5 h | 487 µM (≈ 229 µg/mL) | 1 to 5 µM | 0.05 to 0.1 µM | 2.5 to 10 µM |  | 
Cc1nc(N2C[C@@H](CC(=O)N(C)C3CCCC3)C[C@H]2C(=O)O)c2oc3ccccc3c2n1 [Compound 2, (2S,4R)-4-(2-(cyclopentyl(methyl)amino)-2-oxoethyl)-1-(2-methylbenzofuro[3,2-d]pyrimidin-4-yl)pyrrolidine-2-carboxylic acid] |  | > 5 h | > 5 h | 506 µM (≈ 221 µg/mL) | 0.5 to 1 µM | 0.05 to 0.1 µM | > 20 µM | C (C represents <1 cm/ss×10^−6) | 
Cc1nc(N2C[C@@H](CC(=O)Nc3ccc4[nH]ncc4c3)C[C@H]2C(=O)O)c2oc3ccccc3c2n1 [Compound 3, (2S,4R)-4-(2-((1H-indazol-5-yl)amino)-2-oxyethyl)-1-(2-methylbenzofuro[3,2-d]pyrimidin-4-yl)pyrrolidine-2-carboxylic acid] |  | > 5 h |  | 496 µM (≈ 233 µg/mL) | > 5 µM | 1 to 10 µM | 10 to 20 µM | C (C represents <1 cm/ss×10^−6) | 
COc1cc(NC(=O)C[C@H]2C[C@@H](C(=O)O)N(c3nc(C)nc4c3oc3ccccc34)C2)ccn1 [Compound 6, (2S,4R)-4-(2-((2-methoxypyridin-4-yl)amino)-2-oxoethyl)-1-(2-methylbenzofuro[3,2-d]pyrimidin-4-yl)pyrrolidine-2-carboxylic acid] |  | > 5 h | > 5 h | 496 µM (≈ 229 µg/mL) | 1 to 5 µM | 0.05 to 0.1 µM | 2.5 to 10 µM | C (C represents <1 cm/ss×10^−6) | 
Cc1nc(N2C[C@@H](CC(=O)Nc3ccc(Cl)c(Cl)c3)C[C@H]2C(=O)O)c2oc3ccccc3c2n1 [Compound 26, (2S,4R)-4-(2-((3,4-dichlorophenyl)amino)-2-oxoethyl)-1-(2-methylbenzofuro[3,2-d]pyrimidin-4-yl)pyrrolidine-2-carboxylic acid] | 50 to 100 nm/s | > 5 h | > 5 h | 80 µM (≈ 39.9 µg/mL) | 1 to 5 µM | 0.2 to 1 µM | 2.5 to 10 µM |  | 2.5 to 10 µM
C#Cc1ccc(NC(=O)C[C@H]2C[C@@H](C(=O)O)N(c3nc(C)nc4c3oc3ccccc34)C2)cc1 [Compound 27, (2S,4R)-4-(2-((4-ethynylphenyl)amino)-2-oxoethyl)-1-(2-methylbenzofuro[3,2-d]pyrimidin-4-yl)pyrrolidine-2-carboxylic acid] | 10 to 50 nm/s | > 5 h | 1.67 to 3.33 h | 548 µM (≈ 249 µg/mL) | 1 to 5 µM | 0.1 to 0.2 µM | 2.5 to 10 µM |  | 2.5 to 10 µM
Cc1nc(N2C[C@@H](CC(=O)Nc3ccc4ccccc4c3)C[C@H]2C(=O)O)c2oc3ccccc3c2n1 [Compound 31, (2S,4R)-1-(2-methylbenzofuro[3,2-d]pyrimidin-4-yl)-4-(2-(naphthalen-2-ylamino)-2-oxoethyl)pyrrolidine-2-carboxylic acid] | 50 to 100 nm/s | > 5 h | 1.67 to 3.33 h | 313 µM (≈ 150 µg/mL) | 0.2 to 0.5 µM | 0.05 to 0.1 µM | 1 to 2.5 µM |  | 1 to 2.5 µM
Cc1nc(N2C[C@@H](CC(=O)Nc3ccc4ncccc4c3)C[C@H]2C(=O)O)c2oc3ccccc3c2n1 [Compound 32, (2S,4R)-1-(2-methylbenzofuro[3,2-d]pyrimidin-4-yl)-4-(2-oxo-2-(quinolin-6-ylamino)ethyl)pyrrolidine-2-carboxylic acid] |  | 3.33 to 5 h | > 5 h | 527 µM (≈ 254 µg/mL) | 1 to 5 µM | 0.05 to 0.1 µM | 2.5 to 10 µM | C (C represents <1 cm/ss×10^−6) | 10 to 20 µM
Cc1nc(N2C[C@@H](CC(=O)Nc3cccc(-c4ccccc4)c3)C[C@H]2C(=O)O)c2oc3ccccc3c2n1 [Compound 36, (2S,4R)-4-(2-([1,1′-biphenyl]-3-ylamino)-2-oxoethyl)-1-(2-methylbenzofuro[3,2-d]pyrimidin-4-yl)pyrrolidine-2-carboxylic acid] | 10 to 50 nm/s | > 5 h | > 5 h | 155 µM (≈ 78.5 µg/mL) | 0.2 to 0.5 µM | 0.05 to 0.1 µM | 1 to 2.5 µM |  | 1 to 2.5 µM
Cc1nc(N2C[C@@H](CC(=O)Nc3ccc(-c4cccnc4)cc3)C[C@H]2C(=O)O)c2oc3ccccc3c2n1 [Compound 37, (2S,4R)-1-(2-methylbenzofuro[3,2-d]pyrimidin-4-yl)-4-(2-oxo-2-((4-(pyridin-3-yl)phenyl)amino)ethyl)pyrrolidine-2-carboxylic acid] |  | 3.33 to 5 h | > 5 h | 547 µM (≈ 278 µg/mL) | < 0.2 µM | < 0.05 µM | 1 to 2.5 µM | C (C represents <1 cm/ss×10^−6) | 1 to 2.5 µM
Cc1nc(N2C[C@@H](CC(=O)Nc3ccc(-c4ccc5[nH]ncc5c4)cc3)C[C@H]2C(=O)O)c2oc3ccccc3c2n1 [Compound 38, (2S,4R)-4-(2-((4-(1H-indazol-5-yl)phenyl)amino)-2-oxoethyl)-1-(2-methylbenzofuro[3,2-d]pyrimidin-4-yl)pyrrolidine-2-carboxylic acid] |  | > 5 h | 1.67 to 3.33 h | 84 µM (≈ 45.9 µg/mL) | 0.2 to 0.5 µM | < 0.05 µM | 1 to 2.5 µM | C (C represents <1 cm/ss×10^−6) | 2.5 to 10 µM
Cc1nc(N2C[C@@H](CC(=O)Nc3ccc(-c4cccc5[nH]ncc45)cc3)C[C@H]2C(=O)O)c2oc3ccccc3c2n1 [Compound 46, (2S,4R)-4-(2-((4-(1H-indazol-4-yl)phenyl)amino)-2-oxoethyl)-1-(2-methylbenzofuro[3,2-d]pyrimidin-4-yl)pyrrolidine-2-carboxylic acid] |  | > 5 h | 1.67 to 3.33 h | 42 µM (≈ 23 µg/mL) | < 0.2 µM | < 0.05 µM | < 1 µM | C (C represents <1 cm/ss×10^−6) | 1 to 2.5 µM
Cc1nc(N2C[C@@H](CC(=O)Nc3ccc(Cc4ccccc4)cc3)C[C@H]2C(=O)O)c2oc3ccccc3c2n1 [Compound 54, (28.4R)-4-(2-((4-benzylphenyl)amino)-2-oxoethyl)-1-(2-methylbenzofuro[3,2-d]pyrimidin-4-yl)pyrrolidine-2-carboxylic acid] | 10 to 50 nm/s | 1.67 to 3.33 h | 1.67 to 3.33 h | 285 µM (≈ 148 µg/mL) | 0.5 to 1 µM | 0.05 to 0.1 µM | 1 to 2.5 µM |  | 2.5 to 10 µM
